# Assay results from PubChem BioAssay AID1259407 (Chemical Carcinogenesis Research Information System (CCRIS), 2018).
# Calls of active or inactive are those of the source. How the calls were made is not given here.
# Tested on: CCRIS mutagenicity, Ames/micronucleus/aberration tests
# Test: CCRIS mutagenicity studies
# [1] = Test System: AMES SALMONELLA TYPHIMURIUM, Strain/Indicator: TA98, Metabolic Activation: HAMSTER, LIVER, S-9, AROCLOR 1254 (30%), Method: PREINCUBATION
# [2] = Test System: AMES SALMONELLA TYPHIMURIUM, Strain/Indicator: TA98, Metabolic Activation: NONE, Method: PREINCUBATION
# [3] = Test System: AMES SALMONELLA TYPHIMURIUM, Strain/Indicator: TA100, Metabolic Activation: HAMSTER, LIVER, S-9, AROCLOR 1254 (10%), Method: PREINCUBATION
# [4] = Test System: AMES SALMONELLA TYPHIMURIUM, Strain/Indicator: TA100, Metabolic Activation: HAMSTER, LIVER, S-9, AROCLOR 1254 (30%), Method: PREINCUBATION
# [5] = Test System: AMES SALMONELLA TYPHIMURIUM, Strain/Indicator: TA100, Metabolic Activation: NONE, Method: PREINCUBATION
# [6] = Test System: AMES SALMONELLA TYPHIMURIUM, Strain/Indicator: TA100, Metabolic Activation: RAT, LIVER, S-9, AROCLOR 1254 (10%), Method: PREINCUBATION
# [7] = Test System: AMES SALMONELLA TYPHIMURIUM, Strain/Indicator: TA100, Metabolic Activation: RAT, LIVER, S-9, AROCLOR 1254 (30%), Method: PREINCUBATION
# [8] = Test System: AMES SALMONELLA TYPHIMURIUM, Strain/Indicator: TA1535, Metabolic Activation: HAMSTER, LIVER, S-9, AROCLOR 1254 (10%), Method: PREINCUBATION
# [9] = Test System: AMES SALMONELLA TYPHIMURIUM, Strain/Indicator: TA1535, Metabolic Activation: NONE, Method: PREINCUBATION
# [10] = Test System: AMES SALMONELLA TYPHIMURIUM, Strain/Indicator: TA1535, Metabolic Activation: RAT, LIVER, S-9, AROCLOR 1254 (10%), Method: PREINCUBATION
# [11] = Test System: AMES SALMONELLA TYPHIMURIUM, Strain/Indicator: TA98, Metabolic Activation: NONE, Method: STANDARD PLATE
# [12] = Test System: AMES SALMONELLA TYPHIMURIUM, Strain/Indicator: TA100, Metabolic Activation: NONE, Method: STANDARD PLATE
smiles,measurement,setting,value
CC(=O)NBr,mutagenic call,"Test System: AMES SALMONELLA TYPHIMURIUM, Strain/Indicator: TA97, Metabolic Activation: HAMSTER, LIVER, S-9, AROCLOR 1254 (10%), Method: PREINCUBATION",inactive; negative
same,mutagenic call,"Test System: AMES SALMONELLA TYPHIMURIUM, Strain/Indicator: TA97, Metabolic Activation: HAMSTER, LIVER, S-9, AROCLOR 1254 (30%), Method: PREINCUBATION",inactive; negative
same,mutagenic call,"Test System: AMES SALMONELLA TYPHIMURIUM, Strain/Indicator: TA97, Metabolic Activation: NONE, Method: PREINCUBATION",inactive; negative
same,mutagenic call,"Test System: AMES SALMONELLA TYPHIMURIUM, Strain/Indicator: TA97, Metabolic Activation: RAT, LIVER, S-9, AROCLOR 1254 (10%), Method: PREINCUBATION",inactive; negative
same,mutagenic call,"Test System: AMES SALMONELLA TYPHIMURIUM, Strain/Indicator: TA97, Metabolic Activation: RAT, LIVER, S-9, AROCLOR 1254 (30%), Method: PREINCUBATION",inactive; negative
same,mutagenic call,"Test System: AMES SALMONELLA TYPHIMURIUM, Strain/Indicator: TA98, Metabolic Activation: HAMSTER, LIVER, S-9, AROCLOR 1254 (10%), Method: PREINCUBATION",inactive; negative
same,mutagenic call,[1],inactive; negative
same,mutagenic call,[2],inactive; negative
same,mutagenic call,"Test System: AMES SALMONELLA TYPHIMURIUM, Strain/Indicator: TA98, Metabolic Activation: RAT, LIVER, S-9, AROCLOR 1254 (10%), Method: PREINCUBATION",inactive; negative
same,mutagenic call,"Test System: AMES SALMONELLA TYPHIMURIUM, Strain/Indicator: TA98, Metabolic Activation: RAT, LIVER, S-9, AROCLOR 1254 (30%), Method: PREINCUBATION",inactive; negative
same,mutagenic call,[3],inactive; negative
same,mutagenic call,[4],inactive; negative
same,mutagenic call,[5],inactive; negative
same,mutagenic call,[6],inactive; negative
same,mutagenic call,[7],inactive; negative
same,mutagenic call,[8],inactive; negative
same,mutagenic call,"Test System: AMES SALMONELLA TYPHIMURIUM, Strain/Indicator: TA1535, Metabolic Activation: HAMSTER, LIVER, S-9, AROCLOR 1254 (30%), Method: PREINCUBATION",inactive; negative
same,mutagenic call,[9],inactive; negative
same,mutagenic call,[10],inactive; negative
same,mutagenic call,"Test System: AMES SALMONELLA TYPHIMURIUM, Strain/Indicator: TA1535, Metabolic Activation: RAT, LIVER, S-9, AROCLOR 1254 (30%), Method: PREINCUBATION",inactive; negative
CC(=O)[C@H]1CC[C@H]2[C@@H]3C=CC4=CC(=O)CC[C@@]4(C)[C@@H]3CC[C@]12C,mutagenic call,"End Point: IN VIVO MICRONUCLEUS, Test System: HEPATOCYTES, Species: RAT, Strain/Sex: SPRAGUE-DAWLEY/FEMALE, Route: INTRAGASTRIC (GAVAGE)",inactive; negative
[N-]=[N+]=NCc1ccccc1,mutagenic call,"End Point: IN VITRO CHROMOSOMAL ABERRATIONS, Test System: CHL CELLS, Metabolic Activation: NONE",inactive; negative
same,mutagenic call,"End Point: IN VITRO CHROMOSOMAL ABERRATIONS, Test System: CHL CELLS, Metabolic Activation: RAT, LIVER, S-9, SODIUM PHENOBARBITAL AND 5,6-BENZOFLAVONE",inactive; negative
same,mutagenic call,"Test System: AMES SALMONELLA TYPHIMURIUM, Strain/Indicator: TA100, Metabolic Activation: RAT, LIVER, S-9, PCB, Method: PREINCUBATION",active; positive
COc1ccc(OC)c(N=Nc2c(O)ccc3ccccc23)c1,mutagenic call,[1],active; positive
same,mutagenic call,[2],inactive; negative
same,mutagenic call,[4],active; positive
same,mutagenic call,[5],inactive; negative
same,mutagenic call,[7],active; positive
CC(C)OCC1CO1 (stereo not drawn),mutagenic call,[3],active; positive
same,mutagenic call,[5],active; positive
same,mutagenic call,[6],active; positive
same,mutagenic call,[8],active; positive
same,mutagenic call,[9],active; positive
same,mutagenic call,[10],active; positive
CC1(C)CC(N)CC(C)(C)N1[O],mutagenic call,[11],active; positive
same,mutagenic call,"Test System: AMES SALMONELLA TYPHIMURIUM, Strain/Indicator: TA98, Metabolic Activation: RAT LIVER S-9, PCB, Method: STANDARD PLATE",inactive; negative
same,mutagenic call,[12],active; positive
same,mutagenic call,"Test System: AMES SALMONELLA TYPHIMURIUM, Strain/Indicator: TA100, Metabolic Activation: RAT LIVER S-9, PCB, Method: STANDARD PLATE",inactive; negative
same,mutagenic call,"Test System: AMES SALMONELLA TYPHIMURIUM, Strain/Indicator: TA102, Metabolic Activation: NONE, Method: STANDARD PLATE",inactive; negative
CCCCS(=O)(=O)n1ncc(Cl)c(Cl)c1=O,mutagenic call,[11],inactive; negative
same,mutagenic call,"Test System: AMES SALMONELLA TYPHIMURIUM, Strain/Indicator: TA98, Metabolic Activation: RAT, LIVER, S-9, AROCLOR 1254, Method: STANDARD PLATE",inactive; negative
same,mutagenic call,[12],active; positive
same,mutagenic call,"Test System: AMES SALMONELLA TYPHIMURIUM, Strain/Indicator: TA100, Metabolic Activation: RAT, LIVER, S-9, AROCLOR 1254, Method: STANDARD PLATE",active; positive
same,mutagenic call,"Test System: AMES SALMONELLA TYPHIMURIUM, Strain/Indicator: TA1535, Metabolic Activation: NONE, Method: STANDARD PLATE",inactive; negative
same,mutagenic call,"Test System: AMES SALMONELLA TYPHIMURIUM, Strain/Indicator: TA1535, Metabolic Activation: RAT, LIVER, S-9, AROCLOR 1254, Method: STANDARD PLATE",active; positive
same,mutagenic call,"Test System: AMES SALMONELLA TYPHIMURIUM, Strain/Indicator: TA1537, Metabolic Activation: NONE, Method: STANDARD PLATE",inactive; negative
same,mutagenic call,"Test System: AMES SALMONELLA TYPHIMURIUM, Strain/Indicator: TA1537, Metabolic Activation: RAT, LIVER, S-9, AROCLOR 1254, Method: STANDARD PLATE",inactive; negative
O=c1ccc2c(cc3ccc4cccc5ccc2c3c45)c1=O,mutagenic call,"Test System: AMES SALMONELLA TYPHIMURIUM, Strain/Indicator: TA97A, Metabolic Activation: NONE, Method: PREINCUBATION",active; positive
same,mutagenic call,[2],inactive; negative
same,mutagenic call,[5],inactive; negative
same,mutagenic call,"Test System: AMES SALMONELLA TYPHIMURIUM, Strain/Indicator: TA102, Metabolic Activation: NONE, Method: PREINCUBATION",inactive; negative
same,mutagenic call,"Test System: AMES SALMONELLA TYPHIMURIUM, Strain/Indicator: TA104, Metabolic Activation: NONE, Method: PREINCUBATION",inactive; negative
